Source: patent US20110021542A1, “Use of a Combination of Udenafil and Alfuzosin or Oxybutynin for the Treatment of Overactive Bladder” (PELVIPHARM, priority 2008, published 2011)

Test system: carbachol precontracted human bladder strips
Assay: Relaxation of carbachol-precontracted human detrusor strips
Format: tissue-based
Conditions: carbachol 10^-6 M precontraction; cumulative 10^-9 to 3.10^-5 M; compared with tadalafil, sildenafil, vardenafil; FIG. 1
Experimental: The experiments, collection and use of any tissue or other samples were carried out in accordance with the Research Plan, all relevant laws, regulations and codes of practice, including having obtaining informed consent of patients in writing. Bladders were obtained from donors undergoing cystectomy for infiltrating bladder cancer with no known bladder dysfunction according to their medical chart. In accordance with French legislation, human tissue samples were obtained with patient informed consent and after hepatitis and HIV serologies determination. After surgical procedure, bladder samples were immediately transported from the operating room to the pathologist facilities where a normal piece of the bladder dome, i.e. with no macroscopic tumoral tissue, was selected for experiments by the pathologist. […] The strips were connected to force transducers (Pioden Controls Ltd, UK) and following amplification, the tension changes were recorded via MacLab™/8 using Chart™ 5 software (AD Instruments Ltd). […] For the evaluation of the effect of drugs to inhibit carbachol-induced contractions, relaxations in response to increasing and cumulative concentrations of PDE5 inhibitors or oxybutynin or corresponding concentrations of vehicle are expressed as the percentage of inhibition of the contractile response to carbachol. […]

## CCCOc1ccc(S(=O)(=O)NCCC2CCCN2C)cc1-c1nc2c(CCC)nn(C)c2c(=O)[nH]1 (stereo not shown) [Udenafil, 5-[2-propyloxy-5-(1-methyl-2-pyrrolidinylethylamidosulfonyl)phenyl]-methyl-3-propyl-1,6-dihydro-7H-pyrazolo(4,3-d)pyrimidine-7-one]
  inhibitory effect to relax carbachol-induced contractions of human bladder strips: greater inhibitory effect than the other PDE-5 inhibitors tested
